Experimental findings from patent US10477864B2, “Microbiocidal quinoline (thio)carboxamide derivatives” (priority 2016, dated 2019) are described below.

In data set [1] the test system is Fusarium culmorum. The data set can be described thus: microbe, parasite or virus in culture. It counts as cell-based. As to conditions: read-out: control of Fusarium culmorum.
For data set [2], the system named is Fusarium culmorum. In words: whole plant or invertebrate. The data set is classed as in vivo. The conditions noted are these: in Triticum aestivum, read-out: control of Fusarium culmorum.
Data set [3] has as its system Botryotinia fuckeliana (Botrytis cinerea). In words: Botryotinia fuckeliana (Botrytis cinerea) / liquid culture (gray mould). As to conditions: 72 h, read-out: control of Botryotinia fuckeliana. The data set is classed as cell-based.
The subject of data set [4] is Glomerella lagenarium (Colletotrichum lagenarium). The data set can be described thus: Glomerella lagenarium (Colletotrichum lagenarium) / liquid culture (anthracnose). It counts as cell-based. The conditions noted are these: Colletotrichum orbiculare; read-out: control of Glomerella lagenarium.
Data set [5] concerns Monographella nivalis (Microdochium nivale). The data set can be described thus: Monographella nivalis (Microdochium nivale) / liquid culture (foot rot cereals). The data set is classed as cell-based. The conditions noted are these: 96 h, read-out: control of Monographella nivalis.
For data set [6], the system named is Magnaporthe grisea (Pyricularia oryzae). The data set can be described thus: microbe, parasite or virus in culture. The data set is classed as cell-based. As to conditions: 72 h, read-out: control of Magnaporthe grisea.

As to `C=C(C)CC(COC)(Cc1ccccc1)NC(=O)c1cnc2c(F)cccc2c1` (stereo not drawn) [Compound E-103, N-[1-benzyl-1-(methoxymethyl)-3-methyl-but-3-enyl]-8-fluoro-quinoline-3-carboxamide], the melting point (in general, the temperature, or range, at which the solid turns liquid) was in the range of 147 to 149 °C. In addition, the inhibition of growth at 200 ppm in the data set with Fusarium culmorum [1] is no less than 80%. For the same compound, the pest or weed control at 200 ppm in the data set with Fusarium culmorum [2] was no less than 80%. Further, in data set [3], the inhibition of growth at 200 ppm was no less than 80%. In data set [4], the inhibition of growth at 200 ppm was no less than 80%. The inhibition of growth at 200 ppm in data set [5] was no less than 80%.

Regarding `C=C(C)CC(C)(NC(=O)c1cnc2c(F)cccc2c1)C(F)(F)c1ccccc1` (stereo not drawn) [Compound E-51, N-[1-[difluoro(phenyl)methyl]-1,3-dimethyl-but-3-enyl]-8-fluoro-quinoline-3-carboxamide], the inhibition of growth at 200 ppm (in the data set on Fusarium culmorum [1]; in data set [6]; in data set [3]; in data set [4]) was no less than 80% each time. For the same compound, in the data set on Fusarium culmorum [2], the pest or weed control at 200 ppm is no less than 80%.

In turn, `CC(C)CC(C)(Cc1ccccc1)NC(=O)c1cnc2cc(Cl)ccc2c1` (stereo not drawn) [Compound E-65, N-(1-benzyl-1,3-dimethyl-butyl)-7-chloro-quinoline-3-carboxamide] displayed a melting point of 172 to 174 °C. Further, in the data set with Fusarium culmorum [1], the inhibition of growth at 200 ppm was no less than 80%. In data set [6], the inhibition of growth at 200 ppm is no less than 80%. Besides, the inhibition of growth at 200 ppm in data set [3] is no less than 80%.

With `CC(Cc1ccccc1)(CC1CCC1)NC(=O)c1cnc2c(F)cccc2c1` (stereo not drawn) [Compound E-112, N-(1-benzyl-2-cyclobutyl-1-methyl-ethyl)-8-fluoro-quinoline-3-carboxamide], the melting point was in the range of 125 to 127 °C. Moreover, the inhibition of growth at 200 ppm in the data set with Fusarium culmorum [1] is no less than 80%. In addition, the inhibition of growth at 200 ppm in data set [3] was no less than 80%. Also, the inhibition of growth at 200 ppm in data set [4] is no less than 80%. Also, in data set [5], the inhibition of growth at 200 ppm was no less than 80%.

Compound `COC(C)(C)CC(C)(Cc1ccccc1)NC(=O)c1cnc2c(F)cccc2c1` (stereo not drawn) [Compound E-118, N-(1-benzyl-3-methoxy-1,3-dimethyl-butyl)-8-fluoro-quinoline-3-carboxamide] yielded a melting point of 118 to 120 °C. In the data set with Fusarium culmorum [1], the inhibition of growth at 200 ppm was no less than 80%. Besides, the inhibition of growth at 200 ppm in data set [3] was no less than 80%. The inhibition of growth at 200 ppm in data set [4] is no less than 80%. In addition, the inhibition of growth at 200 ppm in data set [5] is no less than 80%.

The compound `O=C(NC(CCC(F)(F)F)Cc1ccccc1)c1cnc2c(F)cccc2c1` (stereo not drawn) [Compound E-16, N-(1-benzyl-4,4,4-trifluoro-butyl)-8-fluoro-quinoline-3-carboxamide] returned a melting point of 157 to 161 °C. Besides, the inhibition of growth at 200 ppm with Fusarium culmorum [1] was no less than 80%. The pest or weed control at 200 ppm with Fusarium culmorum [2] was no less than 80%. For the same compound, the inhibition of growth at 200 ppm in data set [6] was no less than 80%. For the same compound, the inhibition of growth at 200 ppm in data set [3] is no less than 80%.

For the compound `CC(Cc1cccc(F)c1)(CC(F)(F)F)NC(=O)c1cnc2c(F)cccc2c1` (stereo not drawn) [Compound E-99, 8-fluoro-N-[3,3,3-trifluoro-1-[(3-fluorophenyl)methyl]-1-methyl-propyl]quinoline-3-carboxamide], the melting point is 149 to 151 °C. Besides, the inhibition of growth at 200 ppm with Fusarium culmorum [1] is no less than 80%. In addition, the pest or weed control at 200 ppm in the data set with Fusarium culmorum [2] is no less than 80%. Also, in data set [3], the inhibition of growth at 200 ppm was no less than 80%. In addition, in data set [4], the inhibition of growth at 200 ppm was no less than 80%. The inhibition of growth at 200 ppm in data set [5] is no less than 80%.

As to `C[C@@](Cc1ccccc1)(CC(F)(F)F)NC(=O)c1cnc2c(F)c(F)ccc2c1` [Compound F-38, N-[(1R)-1-benzyl-3,3,3-trifluoro-1-methyl-propyl]-7,8-difluoro-quinoline-3-carboxamide], the inhibition of growth at 200 ppm (in the data set on Fusarium culmorum [1]; in data set [6]; in data set [3]; in data set [4]) was no less than 80% in each case.

Compound `COc1ccc2cc(C(=O)NC(C)(Cc3ccccc3)CC(C)C)cnc2c1` (stereo not drawn) [Compound E-122, N-(1-benzyl-1,3-dimethyl-butyl)-7-methoxy-quinoline-3-carboxamide] showed a melting point of 136 to 138 °C. The inhibition of growth at 200 ppm in data set [5] was no less than 80%.

Compound `CC(Cc1ccc(F)cc1)(CC(F)(F)F)NC(=O)c1cnc2c(F)cccc2c1` (stereo not drawn) [Compound E-66, 8-fluoro-N-[3,3,3-trifluoro-1-[(4-fluorophenyl)methyl]-1-methyl-propyl]quinoline-3-carboxamide] yielded a melting point of 146 to 147 °C. The inhibition of growth at 200 ppm in the data set with Fusarium culmorum [1] was no less than 80%. For the same compound, in the data set on Fusarium culmorum [2], the pest or weed control at 200 ppm is no less than 80%. Further, in data set [6], the inhibition of growth at 200 ppm is no less than 80%. For the same compound, the inhibition of growth at 200 ppm in data set [3] is no less than 80%. The inhibition of growth at 200 ppm in data set [4] was no less than 80%.

In turn, `CC(F)(F)CC(C)(Cc1ccccc1)NC(=O)c1cnc2ccccc2c1` (stereo not drawn) [Compound E-52, N-(1-benzyl-3,3-difluoro-1-methyl-butyl)quinoline-3-carboxamide] had a melting point of 131 to 133 °C. In addition, the inhibition of growth at 200 ppm in the data set with Fusarium culmorum [1] is no less than 80%. The pest or weed control at 200 ppm with Fusarium culmorum [2] is no less than 80%. The inhibition of growth at 200 ppm in data set [6] is no less than 80%. For the same compound, the inhibition of growth at 200 ppm in data set [3] was no less than 80%. Besides, the inhibition of growth at 200 ppm in data set [4] is no less than 80%.

As for `CC(F)(F)CC(C)(Cc1ccccc1)NC(=O)c1cnc2c(F)cccc2c1` (stereo not drawn) [Compound E-50, N-(1-benzyl-3,3-difluoro-1-methyl-butyl)-8-fluoro-quinoline-3-carboxamide], the inhibition of growth at 200 ppm (with Fusarium culmorum [1]; in data set [6]; in data set [3]; in data set [4]) was no less than 80% in each case. In addition, the pest or weed control at 200 ppm in the data set with Fusarium culmorum [2] is no less than 80%.

`CC(C)CC(C)(Cc1ccc(C#N)cc1)NC(=O)c1cnc2c(F)cccc2c1` (stereo not drawn) [Compound E-32, N-[1-[(4-cyanophenyl)methyl]-1,3-dimethyl-butyl]-8-fluoro-quinoline-3-carboxamide] showed a melting point of 67 to 69 °C. Further, the inhibition of growth at 200 ppm in the data set with Fusarium culmorum [1] was no less than 80%. Also, in data set [6], the inhibition of growth at 200 ppm is no less than 80%. The inhibition of growth at 200 ppm in data set [3] was no less than 80%. For the same compound, the inhibition of growth at 200 ppm in data set [4] was no less than 80%.

Consider `CC(F)(F)C[C@@](C)(Cc1ccccc1)NC(=O)c1cnc2c(F)cccc2c1` [Compound F-40, N-[(1R)-1-benzyl-3,3-difluoro-1-methyl-butyl]-8-fluoro-quinoline-3-carboxamide], for which the inhibition of growth at 200 ppm (in the data set on Fusarium culmorum [1]; in data set [6]; in data set [3]; in data set [4]) was no less than 80% each time. The pest or weed control at 200 ppm in the data set on Fusarium culmorum [2] is no less than 80%.

As to `C[C@](Cc1ccccc1)(CC(F)(F)F)NC(=O)c1cnc2c(F)c(F)ccc2c1` [Compound F-37, N-[(1S)-1-benzyl-3,3,3-trifluoro-1-methyl-propyl]-7,8-difluoro-quinoline-3-carboxamide], the inhibition of growth at 200 ppm (in the data set with Fusarium culmorum [1]; in data set [6]; in data set [3]; in data set [4]) was no less than 80% each time. Further, in the data set with Fusarium culmorum [2], the pest or weed control at 200 ppm was no less than 80%.

`CC(C)CC(C)(Cc1ccccc1C#N)NC(=O)c1cnc2c(F)cccc2c1` (stereo not drawn) [Compound E-44, N-[1-[(2-cyanophenyl)methyl]-1,3-dimethyl-butyl]-8-fluoro-quinoline-3-carboxamide] returned a melting point of 43 to 44 °C. The inhibition of growth at 200 ppm in the data set with Fusarium culmorum [1] was no less than 80%. In addition, the pest or weed control at 200 ppm in the data set on Fusarium culmorum [2] was no less than 80%. For the same compound, the inhibition of growth at 200 ppm in data set [6] was no less than 80%. For the same compound, in data set [3], the inhibition of growth at 200 ppm is no less than 80%. The inhibition of growth at 200 ppm in data set [4] is no less than 80%.

As to `C=CCC(Cc1ccccc1)(NC(=O)c1cnc2c(F)cccc2c1)C(F)(F)F` (stereo not drawn) [Compound E-92, N-[1-benzyl-1-(trifluoromethyl)but-3-enyl]-8-fluoro-quinoline-3-carboxamide], the inhibition of growth at 200 ppm (in the data set with Fusarium culmorum [1]; in data set [3]; in data set [4]; in data set [5]) was no less than 80% throughout. In the data set on Fusarium culmorum [2], the pest or weed control at 200 ppm is no less than 80%.

Consider `CC(Cc1ccccc1)(CC(F)(F)F)NC(=O)c1cnc2cc(Cl)ccc2c1` (stereo not drawn) [Compound E-69, N-(1-benzyl-3,3,3-trifluoro-1-methyl-propyl)-7-chloro-quinoline-3-carboxamide], for which the melting point was 174 to 176 °C. Moreover, in the data set with Fusarium culmorum [1], the inhibition of growth at 200 ppm is no less than 80%. Besides, the pest or weed control at 200 ppm with Fusarium culmorum [2] was no less than 80%. Also, the inhibition of growth at 200 ppm in data set [6] is no less than 80%. Besides, in data set [3], the inhibition of growth at 200 ppm was no less than 80%. Also, the inhibition of growth at 200 ppm in data set [4] was no less than 80%.

In the case of `COc1cccc2cc(C(=O)NC(C)(Cc3ccccc3)CC(C)C)cnc12` (stereo not drawn) [Compound E-123, N-(1-benzyl-1,3-dimethyl-butyl)-8-methoxy-quinoline-3-carboxamide], the melting point lay within 155 to 156 °C. For the same compound, in the data set on Fusarium culmorum [1], the inhibition of growth at 200 ppm was no less than 80%. Further, the inhibition of growth at 200 ppm in data set [3] was no less than 80%. Also, in data set [5], the inhibition of growth at 200 ppm is no less than 80%.

On to `CC(C)(F)C[C@@](C)(Cc1ccccc1)NC(=O)c1cnc2c(F)cccc2c1` [Compound F-23, N-[(1R)-1-benzyl-3-fluoro-1,3-dimethyl-butyl]-8-fluoro-quinoline-3-carboxamide], for which the inhibition of growth at 200 ppm (in the data set with Fusarium culmorum [1]; in data set [3]; in data set [4]; in data set [5]) was no less than 80% throughout. Besides, in the data set on Fusarium culmorum [2], the pest or weed control at 200 ppm is no less than 80%.

In the case of `CC(F)(F)C[C@](C)(Cc1ccccc1)NC(=O)c1cnc2ccccc2c1` [Compound F-25, N-[(1S)-1-benzyl-3,3-difluoro-1-methyl-butyl]quinoline-3-carboxamide], the inhibition of growth at 200 ppm (with Fusarium culmorum [1]; in data set [3]; in data set [4]; in data set [5]) was no less than 80% in each case. For the same compound, the pest or weed control at 200 ppm in the data set on Fusarium culmorum [2] is no less than 80%.
